≈ marks a conversion by molar mass, not a printed value.
Assays:
Format in all cases: functional
Haemophilus influenzae [1] = experiment: Antibacterial activity against ROB-1 and TEM-1 producing ICE- positive Haemophilus influenzae F49 harboring D350N, V547I and N569S mutations in PBP3 by Etest method
Haemophilus influenzae [2] = experiment: Antibacterial activity against ROB-1 producing ICE- negative Haemophilus influenzae F50 by broth microdilution method
Haemophilus influenzae [3] = experiment: Antibacterial activity against […] by broth microdilution method
Haemophilus influenzae [4] = experiment: Antibacterial activity against ROB-1 producing ICE- negative Haemophilus influenzae H62 by broth microdilution method
Haemophilus influenzae [5] = experiment: Antibacterial activity against ROB-1 producing ICE- negative Haemophilus influenzae F3 by Etest method
Haemophilus influenzae [6] = experiment: Antibacterial activity against ROB-1 producing ICE- negative Haemophilus influenzae Rd transformant harboring plasmid PB1000 by broth microdilution method
Haemophilus influenzae [7] = experiment: Antibacterial activity against ROB-1 producing ICE- negative Haemophilus influenzae Rd transformant harboring plasmid PB1000 by Etest method
Haemophilus influenzae [8] = experiment: Antibacterial activity against ROB-1 producing ICE- negative Haemophilus influenzae H23 by Etest method
Haemophilus influenzae [9] = experiment: Antibacterial activity against ROB-1 producing ICE- negative Haemophilus influenzae F50 by Etest method
Haemophilus influenzae [10] = experiment: Antibacterial activity against ROB-1 and TEM-1 producing ICE- positive Haemophilus influenzae F47 by Etest method
Haemophilus influenzae [11] = experiment: Antibacterial activity against ROB-1 producing ICE- negative Haemophilus influenzae H62 by Etest method
Haemophilus influenzae [12] = experiment: Antibacterial activity against ROB-1 producing ICE- positive Haemophilus influenzae F45 harboring D350N, V547I and N569S mutations in PBP3 by broth microdilution method
Haemophilus influenzae [13] = experiment: Antibacterial activity against ROB-1 producing ICE- negative Haemophilus influenzae F41 by broth microdilution method
Haemophilus influenzae [14] = experiment: Antibacterial activity against ROB-1 producing ICE- negative Haemophilus influenzae F41 by Etest method
Haemophilus influenzae [15] = experiment: Antibacterial activity against ROB-1 producing ICE- positive Haemophilus influenzae F49 harboring D350N, V547I and N569S mutations in PBP3 by broth microdilution method
Haemophilus influenzae [16] = experiment: Antibacterial activity against ROB-1 and TEM-1 producing ICE- positive Haemophilus influenzae F48 by Etest method
Haemophilus influenzae [17] = experiment: Antibacterial activity against ROB-1 producing ICE- negative Haemophilus influenzae H23 by broth microdilution method
Haemophilus influenzae [18] = experiment: Antibacterial activity against […] by Etest method
Haemophilus influenzae [19] = experiment: Antibacterial activity against ROB-1 producing ICE- positive Haemophilus influenzae F52 by broth microdilution method
Haemophilus influenzae [20] = experiment: Antibacterial activity against ROB-1 producing ICE- positive Haemophilus influenzae F45 harboring D350N, V547I and N569S mutations in PBP3 by Etest method
Haemophilus influenzae [21] = experiment: Antibacterial activity against ROB-1 producing ICE- positive Haemophilus influenzae F47 by broth microdilution method
Haemophilus influenzae [22] = experiment: Antibacterial activity against ROB-1 and TEM-1 producing ICE- positive Haemophilus influenzae F54 harboring V489G, M503R, R517H, V547I and N569S mutations in PBP3 by Etest method
Haemophilus influenzae [23] = experiment: Antibacterial activity against ROB-1 producing ICE- positive Haemophilus influenzae F48 by broth microdilution method
Haemophilus influenzae [24] = experiment: Antibacterial activity against ROB-1 producing ICE- positive Haemophilus influenzae F54 harboring V489G, M503R, R517H, V547I and N569S mutations in PBP3 by broth microdilution method
Haemophilus influenzae [25] = experiment: Antibacterial activity against ROB-1 and TEM-1 producing ICE- positive Haemophilus influenzae F52 by Etest method
Haemophilus influenzae [26] = experiment: Antibacterial activity against ROB-1 producing ICE- negative Haemophilus influenzae F3 by broth microdilution method

N[C@@H](C(=O)N[C@@H]1C(=O)N2C(C(=O)O)=C(Cl)CS[C@H]12)c1ccccc1 [CEFACLOR ANHYDROUS]
MIC (Haemophilus influenzae [1]): 16 µg/mL (≈ 43.5 µM) | MIC (Haemophilus influenzae [2]): 16 µg/mL (≈ 43.5 µM) | MIC (Haemophilus influenzae [3]): 1 µg/mL (≈ 2.72 µM) | MIC (Haemophilus influenzae [4]): 32 µg/mL (≈ 87 µM) | MIC (Haemophilus influenzae [5]): 4 µg/mL (≈ 10.9 µM) | MIC (Haemophilus influenzae [6]): 32 µg/mL (≈ 87 µM) | MIC (Haemophilus influenzae [7]): 4 µg/mL (≈ 10.9 µM) | MIC (Haemophilus influenzae [8]): 2 µg/mL (≈ 5.44 µM) | MIC (Haemophilus influenzae [9]): 2 µg/mL (≈ 5.44 µM) | MIC (Haemophilus influenzae [10]): 4 µg/mL (≈ 10.9 µM) | MIC (Haemophilus influenzae [11]): 6 µg/mL (≈ 16.3 µM) | MIC (Haemophilus influenzae [12]): 64 µg/mL (≈ 174 µM) | MIC (Haemophilus influenzae [13]): 32 µg/mL (≈ 87 µM) | MIC (Haemophilus influenzae [14]): 4 µg/mL (≈ 10.9 µM) | MIC (Haemophilus influenzae [15]): 64 µg/mL (≈ 174 µM) | MIC (Haemophilus influenzae [16]): 6 µg/mL (≈ 16.3 µM) | MIC (Haemophilus influenzae [17]): 16 µg/mL (≈ 43.5 µM) | MIC (Haemophilus influenzae [18]): 0.5 µg/mL (≈ 1.36 µM) | MIC (Haemophilus influenzae [19]): 16 µg/mL (≈ 43.5 µM) | MIC (Haemophilus influenzae [20]): 24 µg/mL (≈ 65.3 µM) | MIC (Haemophilus influenzae [21]): 32 µg/mL (≈ 87 µM) | MIC (Haemophilus influenzae [22]): 32 µg/mL (≈ 87 µM) | MIC (Haemophilus influenzae [23]): 16 µg/mL (≈ 43.5 µM) | MIC (Haemophilus influenzae [24]): 64 µg/mL (≈ 174 µM) | MIC (Haemophilus influenzae [25]): 6 µg/mL (≈ 16.3 µM) | MIC (Haemophilus influenzae [26]): 16 µg/mL (≈ 43.5 µM)

From ChEMBL document CHEMBL1671749, “blaROB-1 presence on pB1000 in Haemophilus influenzae is widespread, and variable cefaclor resistance is associated with altered penicillin-binding proteins” (2010)
